Tests used:
MDA-kb2 cells = test: Cytotoxicity in MDA-kb2; type: cell-based; settings: Cell-Titer Glo, 20 hours
AR = settings: cited from earlier work
[1] = PAMPA permeability and membrane retention; settings: 0.5% DMSO, pH 7.4
Androgen Receptor (AR) = Androgen Receptor (AR) (Homo sapiens, UniProt P10275); test: AR transcription reporter assay; type: cell-based; settings: 0.2 nM DHT
AR-LBD = biological target: T1, AR-LBD (Homo sapiens, UniProt P10275); test: Scintillation Proximity Assay, [3H]-DHT displacement from AR-LBD; type: binding; settings: SPA
T1 sequence (P10275 663-919): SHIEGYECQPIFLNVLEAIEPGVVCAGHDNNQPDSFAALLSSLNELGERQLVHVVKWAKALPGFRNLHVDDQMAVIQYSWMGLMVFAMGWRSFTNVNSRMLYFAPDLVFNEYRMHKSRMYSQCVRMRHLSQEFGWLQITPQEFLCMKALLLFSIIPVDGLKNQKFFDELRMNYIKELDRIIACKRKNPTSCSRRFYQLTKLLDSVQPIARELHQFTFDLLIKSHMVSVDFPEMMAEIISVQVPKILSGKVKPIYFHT

FKBP51 = test: Real time rt-PCR of FKBP51, 18S and GAPDH in MDA-kb2; type: cell-based; settings: 0.2 nM DHT, MDA-kb2, control experiments
in vitro = settings: PAMPA, pH 7.4

Chain of Androgen Receptor (AR) (P10275 whole entry, the tested form may be a part): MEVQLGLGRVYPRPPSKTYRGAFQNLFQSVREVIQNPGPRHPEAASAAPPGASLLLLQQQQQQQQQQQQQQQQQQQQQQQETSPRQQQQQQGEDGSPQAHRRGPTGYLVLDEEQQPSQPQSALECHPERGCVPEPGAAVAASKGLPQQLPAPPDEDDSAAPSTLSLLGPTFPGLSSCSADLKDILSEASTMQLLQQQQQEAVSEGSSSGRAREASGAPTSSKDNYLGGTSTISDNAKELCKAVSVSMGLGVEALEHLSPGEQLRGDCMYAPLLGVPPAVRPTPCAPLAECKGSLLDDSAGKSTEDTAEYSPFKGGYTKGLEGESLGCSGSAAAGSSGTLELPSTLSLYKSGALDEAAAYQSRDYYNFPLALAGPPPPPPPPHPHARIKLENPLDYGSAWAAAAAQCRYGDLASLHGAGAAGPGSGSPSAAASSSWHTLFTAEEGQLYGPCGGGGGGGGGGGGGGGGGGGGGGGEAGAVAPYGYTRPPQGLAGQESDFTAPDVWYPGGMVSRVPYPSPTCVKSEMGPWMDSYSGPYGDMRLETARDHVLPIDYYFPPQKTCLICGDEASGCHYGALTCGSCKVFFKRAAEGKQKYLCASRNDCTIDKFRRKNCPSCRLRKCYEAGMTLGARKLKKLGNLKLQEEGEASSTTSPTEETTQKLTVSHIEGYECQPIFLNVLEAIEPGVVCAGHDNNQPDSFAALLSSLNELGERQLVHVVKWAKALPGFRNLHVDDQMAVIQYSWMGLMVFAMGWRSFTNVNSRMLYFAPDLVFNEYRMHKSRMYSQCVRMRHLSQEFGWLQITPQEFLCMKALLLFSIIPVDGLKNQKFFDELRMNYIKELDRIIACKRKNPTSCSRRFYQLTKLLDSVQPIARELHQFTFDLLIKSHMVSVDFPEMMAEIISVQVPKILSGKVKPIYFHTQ

CC(O)(CS(=O)(=O)c1ccc(F)cc1)C(=O)Nc1ccc(C#N)c(C(F)(F)F)c1 (centres unmarked) [Bicalutamide]
Cytotoxicity (IC50) in MDA-kb2 (MDA-kb2 cells): Non toxic

O=C(O)c1ccccc1Nc1cccc(C(F)(F)F)c1 [Compound 1, flufenamic acid]
Block of AR transcription activity (AR): able to block AR transcription activity

O=C(O)c1ccccc1Nc1ccc(Cc2ccccc2)cc1 [Compound 20]
Cytotoxicity (IC50) in MDA-kb2 (MDA-kb2 cells): Non toxic
Permeability [1]: 98 ± 31 10^‒6 cm s^‒1
Retention in membrane [1]: 89%
% inhibition (in brackets), transcriptional inhibition in MDA-kb2 (Androgen Receptor (AR)): 75%
Binding to the DHT (hormone) binding site of AR-LBD, in words (AR-LBD): low micromolar range

C[C@]12CCC(=O)C[C@@H]1CC[C@@H]1[C@@H]2CC[C@]2(C)[C@@H](O)CC[C@@H]12 [DHT, dihydrotestosterone]
FKBP51 induction (FKBP51): 4–5 fold

CC(C)(O)C(=O)Nc1ccc([N+](=O)[O-])c(C(F)(F)F)c1 [Hydroxyflutamide]
Papp (in vitro): 183 ± 29 ×10⁻⁶ cm/s
Cytotoxicity (IC50) in MDA-kb2 (MDA-kb2 cells): Non toxic
Retention in membrane [1]: 75%

Source: article PMC2763043 (ACS chemical biology, 2009)
